Key:
[1] = system: OGG1 substrate lesions in A3 cells; assay: OGG1-modified Comet assay; format: cell-based, human; conditions: 10 μM, 72 h
Protocol: 8-oxodG detection in genomic DNA through LC–MS/MS ([39]) and single-cell electrophoresis ([40]) were performed as described.
Figure 5. Effect of TH5487 on DNA lesions, DNA damage markers and DNA replication. (A) 8-oxodG accumulation in A3 cells. A3 cells were treated with 20 mM KBrO3 for 1 h or with 10 μM TH5487 for the indicated times, and the amount of genomic 8-oxodG was quantified with LC-MS/MS. Data are average ±SD of five replicates from two independent experiments. (B) Comet assay. A3 cells were treated with 10 μM TH5487 for 72 h and strand-breaks and OGG1 substrate lesions were analyzed with the OGG1-modified Comet assay. Representative images of cells are shown. (C) Violin blot of Comet tail moment. Cells were treated as in B, and the tail moment of the cells were analyzed using blinded automatic analysis (n = 200 per condition from two independent experiments). The full line indicates median, and the dotted lines quartiles. (D) Violin blot of phosphorylated γH2AX intensity. A3 cells were treated with 0.1% DMSO or 10 μM TH5487 for the indicated times and stained for phosphorylated γH2AX. […] At least 33 000 nuclei per group were quantified from three independent experiments. […] At least 300 forks were scored per condition. Statistical significance was determined using unpaired, two-sided t-tests (**P < 0.01, ***P < 0.001 and ****P < 0.0001; ns, non-significant).

[2] = system: Hematological cancer cell lines; assay: Resazurin viability, cell line panel; format: cell-based; conditions: read-out: EC50, average over cell lines
Protocol: (§1) Cells were seeded in 96- or 384-well plates and incubated for 3 days for combination experiments or 5 days for single-drug exposure experiments. Resazurin (R7017, SigmaAldrich) was added to a final concentration of 0.01 mg/ml resazurin and fluorescence was measured at ex530/em590 after incubation for 2, 4 or 6 h. Curves were fitted using XLfit software (IDBS) or Prism 8.0 (Graphpad Software), and EC50 values were determined.
(§2) Figure 3. The OGG1 inhibitor TH5487 is selectively toxic to oncogene-expressing cells and cancer cell lines. (A) Close-up view of ligand TH5487 (green) binding to human OGG1. Important residues in the binding site are marked, hydrogen bond interactions are shown in black dashed line, water (red sphere)-mediated interactions in grey dashed line. (B) Comparison between the binding of ligand TH5487 (green) to human OGG1 (gray) with the structure of TH5675 (pink) bound to mouse OGG1 (yellow, PDB 6G3Y). (C) Viability of BJ-Tert and BJ-Ras cells exposed to the indicated concentrations TH5487 for five days. Data are average ±SD of four technical replicates from two independent experiments. (D) Clonogenic survival of cell lines exposed to TH5487. The cancer cell lines ACHN and H460, and the non-transformed cell lines MRC5 and Ogg1^−/− mouse embryonic fibroblasts (MEF) were incubated for 6–11 days in the presence of the indicated concentrations TH5487, followed by colony enumeration. Data are average ±SD values of four technical replicates, representative of three independent experiments. (E) TH5487 selectively decreases viability of cancer cell lines. EC50-values of 34 cancer (red) and 7 non-transformed cell lines (blue). Cells were exposed to a dilution series of TH5487 for five days followed by a viability assessment using resazurin. All cell lines were tested in two to ten independent experiments. Each point represents the EC50-value from one experiment (average of two or three technical replicates). (F) Comparative analysis of EC50 values for TH5487 in cancer- and non-transformed cell lines, and CD34+ hematopoietic stem cells, CD34- fraction from cord blood or PBMCs from healthy donor blood. All primary blood cells were tested upon activation with Dynabeads/Phytohemagglutinin or not and exposed to a dilution series of TH5487 to calculate EC50 values by resazurin assay.

cancer cell lines = assay: Resazurin viability, cell line panel; format: cell-based
Protocol: as §1, §2

[3] = system: non-transformed cell lines; assay: Resazurin viability, cell line panel; format: cell-based; conditions: Figure 3F, read-out: EC50 (loss of proliferation), average over cell lines
Protocol: as §1, §2

H460 = assay: Colony formation assay; format: cell-based, human; conditions: H460, 6–11 days, Figure 3D
Protocol: (§3) The indicated concentrations TH5487 were spotted in 6-well plates using a Tecan D300e digital dispenser. 200–500 cells/well H460, ACHN, Ogg1^−/− mouse embryonic fibroblasts and MRC5 cells were then seeded at 200–500 cells/well and incubated for 7–11 days. Colonies exceeding 50 cells were fixed, stained and enumerated as above.
as §2, with “All primary blood cells were tested upon activation with Dynabeads/Phytohemagglutinin or not and exposed to a dilution series of TH5487 to calculate EC50 values by resazurin assay.” left out

MRC5 = assay: Colony formation assay; format: cell-based, human; conditions: MRC5, up to 20 μM
Protocol: as §3
as §2, with “All primary blood cells were tested upon activation with Dynabeads/Phytohemagglutinin or not and exposed to a dilution series of TH5487 to calculate EC50 values by resazurin assay.” left out

ACHN = assay: Colony formation assay; format: cell-based, human; conditions: 6–11 days, Figure 3D
Protocol: as §3
as §2, with “All primary blood cells were tested upon activation with Dynabeads/Phytohemagglutinin or not and exposed to a dilution series of TH5487 to calculate EC50 values by resazurin assay.” left out

With `O=C(Nc1ccc(I)cc1)N1CCC(n2c(=O)[nH]c3c(Br)cccc32)CC1` [TH5487] the “Increase in OGG1-induced tail length (Comet)” value [1] was ~50%, the EC50 [2] was 14.7 ± 4.7 µM and the “Selectivity of growth inhibition, cancer vs non-transformed cell lines” value (cancer cell lines; large panel of cancer and non-transformed cell lines, 5 days) was “caused loss of viability in cancer cells while being better tolerated in non-transformed cell lines”. The EC50 (cancer cell lines; tested cancer cell lines, Figure 3F, read-out: EC50 (loss of proliferation), average over cell lines) was 17.9 ± 6.9 µM, the EC50 [3] was 36.9 ± 7.5 µM and the Clonogenic potential (H460) was “concentration-dependent loss of clonogenic potential”. The Clonogenic potential (MRC5) was “unaffected” and the Clonogenic potential (ACHN) was “concentration-dependent loss of clonogenic potential”.

Source: paper PMC7708037, “Targeting OGG1 arrests cancer cell proliferation by inducing replication stress” (Nucleic Acids Research, 2020)
